Results from patent US20060128810A1, “Remedies for allergic diseases” (Kyoto University, priority 2002, published 2006).

Columns and labels:
[1] = tested on: extracted lung of a sensitized wild-type mouse; experiment: Histamine and LT release from extracted lung of sensitized wild-type mouse by in vitro antigen stimulation
Experimental: The inventors of the present invention have studied on involvement of EP3 receptor in allergy reactions using the method already reported in a literature (Science, 287, 2013-(2000)). Specifically, the asthma condition was induced by inhalation of ovalbumin (hereinafter, abbreviated as OVA) in an EP3 receptor-deficient mouse, and the lung condition was analyzed. […] In addition, the suppression of the amount of histamine released from the sensitized lung by the agonist for the EP3 receptor causes only improvement of the portion enhanced by indomethacin. […] The inventors of the present invention have analyzed an EP3 (one of the PGE2 receptor subtypes) gene-deficient mouse and have already elucidated that EP3 is involved in crisis of an allergic reaction from the results of significant increase in the amount of infiltrated eosinophilics in a bronchoalveolar lavage fluid (hereinafter, abbreviated as BALF), and more significant increase in the number of infiltrated cells into a lung tissue and in the amount of Th2 cytokine in the mouse. Furthermore, they have found out that the amount of a chemical mediator that is released by in vitro antigenic stimulation of the lung of a sensitized wild-type mouse is increased by indomethacin which is a PGH-producing enzyme (cyclooxygenase) inhibitor and is suppressed by an agonist for EP3 receptor. […]

[2] = tested on: OVA-sensitized mouse asthma model; experiment: OVA-sensitized mouse asthma model, number of inflammatory cells in BALF; type: in vivo, mouse (C57/BL6); conditions: subcutaneous; for neutrophil number in BALF: FIG. 2
Description: An asthma reaction was induced using a wild-type mouse (C57/BL6) that had previously been sensitized with an antigen of OVA twice (day 0 and day 12) by inhalation sensitization at intervals of four days a total of three times (day 22, day 26, and day 30). Subsequently, the change in the number of inflammatory cells in BALF that was an indicator of an allergic reaction was examined.
That is, a compound having an agonistic activity to EP3 receptor is effective in therapy of an allergic disease such as asthma, and a selective agonistic compound to EP3 receptor can be expected to induce a more remarkable therapeutic effect.

[3] = 10 μg/kg twice a day, day 22 to day 33, FIG. 1
[4] = 10 μg/kg twice a day, day 22 to day 33

Compound | amount of LT released from the extracted lung [1] | amount of histamine released from the extracted lung [1] | eosinophil number in BALF [2, 3] | neutrophil number in BALF [2, 4] | eosinophil number in BALF ([2]; 200 μg/kg twice a day, FIG. 3)
COc1ccc2c(c1)c(CC(=O)O)c(C)n2C(=O)c1ccc(Cl)cc1 [indomethacin] | increase | increase | – | – | –
CCCCC[C@@H](/C=C/[C@H]1[C@H](OC)CC(=O)[C@@H]1C/C=C\CCCC(=O)O)OC [compound (I-1), 11α,15α-dimethoxy-9-oxoprosta-5Z,13E-dienoic acid] | – | – | decreased significantly | decreased significantly | –
CCCCC(C)(C)[C@H](O)/C=C/[C@H]1[C@H](O)CC(=O)[C@@H]1C/C=C\CCCC(=O)O [dmPGE2, 16,16-dimethyl PGE2] | – | – | no significant effect | no significant effect | significant effect
